Measurements from the Kinase Knowledgebase extract (Sharma et al. 2016).

Biological target: MAPK14 (human) (UniProt Q16539)
Assay: LPS Induced TNF-alpha Production Inhibition (THP1 Cells)
Conditions: not given

MAPK14 (human), sequence (Q16539 whole entry, looked up): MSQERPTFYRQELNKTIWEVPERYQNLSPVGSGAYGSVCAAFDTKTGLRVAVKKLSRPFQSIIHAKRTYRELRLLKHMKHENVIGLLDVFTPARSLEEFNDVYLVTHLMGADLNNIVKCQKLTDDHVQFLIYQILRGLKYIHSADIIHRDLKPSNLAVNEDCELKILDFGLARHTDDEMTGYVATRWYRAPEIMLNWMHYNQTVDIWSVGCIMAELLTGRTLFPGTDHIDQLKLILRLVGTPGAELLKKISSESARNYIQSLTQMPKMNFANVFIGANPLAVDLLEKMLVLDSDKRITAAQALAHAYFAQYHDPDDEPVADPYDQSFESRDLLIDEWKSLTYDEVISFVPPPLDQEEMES

IC50 | Compound
0.12 nM | Fc1ccc(-c2c(-c3ccncc3)n(OCCN3CCCC3)c3cccnc23)cc1
0.3 nM | Fc1ccc(-c2c(-c3ccncc3)n(CCN3CCCCC3)c3cccnc23)cc1
8830 nM | N#CCCCn1c(-c2ccncc2)c(-c2ccc(F)cc2)c2nccnc21
0.46 nM | COn1c(-c2ccncc2)c(-c2ccc(F)cc2)c2ncccc21

The next lines start with the molecule.

Compound | IC50
Fc1ccc(-c2c(-c3ccncc3)[nH]c3nccnc23)cc1 | 1100 nM
OCCNc1cc(-c2[nH]c3nccnc3c2-c2ccc(F)cc2)ccn1 | 241 nM

Tested on: MAPK14 (Balb/c mice)
Assay: LPS Induced TNF-alpha Prodcution Inhibition (BALB/c Mice)
Conditions: dose or concentration not given here

Compound | inhibition
Fc1ccc(-c2c(-c3ccncc3)n(OCCN3CCOCC3)c3cccnc23)cc1 | 56%
Fc1ccc(-c2c(-c3ccncc3)oc3cccnc23)cc1 | 86%
Fc1ccc(-c2c(-c3ccncc3)[nH]c3cccnc23)cc1 | 68%
COn1c(-c2ccncc2)c(-c2ccc(F)cc2)c2ncccc21 | 75%
